Laboratory results taken from patent publication US9273015B2, “s-Triazine compounds, pharmaceutical compositions and methods of using the same” (NEW YORK UNIVERSITY, priority 2010, dated 2016).
In brackets after ≈: the same amount, converted by molar mass. Entries after “also recorded” stand apart in the source; their conditions may differ. Where two headings read alike, the source gives them in different places.

Key:
fresh sheep erythrocytes = assay: Hemolytic activity; type: cell-based
Procedure: Hemolytic activity of triazine compounds is assessed using fresh sheep erythrocytes (Fitzgerald Inc., Concord, Mass.). The red blood cell suspension is incubated in PBS buffer (pH 7.2) with varying concentrations of sample stocks at 37° C. for 30 minutes, and then spun down at 3,000 rpm for 10 mins. The resulting supernatant is diluted by a factor of 40 with distilled water. The absorbance of the supernatant at 540 nm is measured using a Genesys 5 Spectrophotometer. Zero % and 100% hemolysis controls are obtained by incubating the cells with buffer and 1% Triton-X, respectively.
Hemolytic activity of three triazine compounds Is assessed on fresh sheep erythrocytes (Fitzgerald Inc., Concord, Mass.). The red blood cell suspension Is incubated in PBS buffer (pH 7.2) with varying concentrations of sample stocks at 37° C. for 30 minutes, and then spun down at 3,000 rpm for 10 mins. The resulting supernatant is diluted by a factor of 40 in distilled water. The absorbance of the supernatant at 540 nm is measured using a Genesys 5 Spectrophotometer. Zero hemolysis and 100% hemolysis controls are obtained by incubating the cells with buffer and 1% Triton-X, respectively. Sample concentration yielding 50% hemolysis is used as hemolytic dose (HD50) determined from dose-response curves.

B. subtilis = assay: Growth inhibition (broth microdilution), B. subtilis; type: cell-based; settings: Bacillus subtilis; for MIC50: read-out: B. Subtilis MIC50; for MIC90: read-out: B. Subtilis MIC90; for IC50: Table 3
Procedure: (§1) The antimicrobial activity of each triazine compound was tested by following standard broth microdilution protocols recommended by the National Committee for Clinical Laboratory Standard. All compounds were initially tested against Bacillus subtilis (ATCC 6633; Rockville, Md.). Bacteria were grown in Mueller Hinton Broth (MHB) at 37° C. for overnight. Then, cultures were diluted in MHB to a final concentration of 2×10^4 to 2×10^5 CFU/mL. Bacterial inocula were incubated at 37° C. in PBS buffer (pH 7.2) with varying concentrations of 2-fold dilution of triazine stocks. The 18-hour absorbance data were used to calculate the percent inhibition for each sample by comparing with the absorbance of cultures without triazine compounds. Bacterial growth was measured by turbidity as optical density at 600 nm using a Genesys 5 Spectrophotometer (Rochester, N.Y.).

S. aureus = assay: Growth inhibition (broth microdilution), S. aureus; type: cell-based, Staphylococcus aureus; settings: for IC50: Table 3
Source text: (§2) The antimicrobial activity of each peptide can be tested following standard broth microdilution protocols recommended by the National Committee for Clinical Laboratory Standard. Multidrug-resistant Staphylococcus aureus strain (ATCC BAA-44) and Acinetobacter baumannii (ATCC BAA-747) can be used in this study, as well as Ampicillin- and streptomycin-resistant Escherichia coli (D31), obtained from the E. coli Genetic Resource Center (Yale University, New Haven, Conn.). Bacteria can be grown overnight in Tryptic Soy broth at 37° C. Then, cultures are diluted in Mueller-Hinton broth to a final concentration range of 2×10^4 to 2×10^5 CFU/ml. Bacterial inocula are incubated at 37° C. in phosphate-buffered saline (PBS) buffer (pH7.2) with various dilutions of peptide stock. The 18-hour absorbance data are used to calculate the percentage of inhibition for each sample by comparison with the absorbance of cultures without sample. Bacterial growth is measured by turbidity as optical density at 600 nm (OD600), using a Genesys 5 Spectrophotometer (Rochester, N.Y.) or equivalent instrument. All assays can be carried out in triplicate. The concentration of peptide that results in 50% inhibition of growth is recorded as the IC50. In addition the concentration of agents needed can be monitored to reduce the bacterial population by three logs, IC99.9. This is a more rigorous indicator of the amount needed to prevent an infection.
as §1

E. coli D31 = assay: Growth inhibition (broth microdilution), E. coli D31; type: cell-based, Escherichia coli
Source text: as §2, §1

A. baumannii [1] = assay: Growth inhibition (broth microdilution), A. baumannii; type: cell-based, Acinetobacter baumannii; settings: Table 1
Source text: as §2, §1

A. baumannii [2] = assay: Evolution of resistance on exposure to sublethal concentrations; type: cell-based; settings: 400 generations of exposure to sublethal concentrations
Source text: FIG. 1 graphically depicts the experimental evaluation of the ability of A. baumannii to evolve resistance to sublethal TN5 and the AMP indolicidin relative to two antibiotics in current use. Changes in the IC50 of cultures exposed to sublethal doses of TN5 are expressed as ratios of the new to original values. For reference, the response of these cells to two current antibiotics is shown.
In particular, FIG. 1 depicts the results of the experimental evaluation of the ability of A. baumannii to evolve resistance to sublethal TN5 and the AMP indolicidin relative to two antibiotics in current use. Changes in the IC50 of cultures exposed to sublethal doses of TN5 are expressed as ratios of the new to original values. For reference, the response of these cells to ciprofloxacin and gentamycin, two current antibiotics is shown.

[3] = test system: E. coli RP437/pRSH103 biofilm; assay: Biofilm formation in 96 well plate (crystal violet, OD540); type: cell-based
Procedure: This assay is based on the protocols described previously (Li, 2001 #745; Pratt, 1998 #725) with slight modifications. Briefly, E. coli RP437 or the test strain is used to form biofilms in 96 well plates in the presence of dendrimer peptides (RW)4D or other agents. An overnight culture of E. coli RP437 grown in LB medium is used to inoculate LB medium in 96 well plates to an OD600 of 0.05. The peptides can be added to a final concentration of 0, 5, 10, 20, or 40 μM, respectively. Four replicates are tested for each condition. All samples are incubated at 37° C. without shaking for 24 hours to form the film. Then planktonic cells are removed and the plates with biofilms are washed three times with DI H2O and dried by gentle patting on a piece of paper towel. To stain the biofilms, 300 μL of 0.1% crystal violet is added into each well and incubated for 20 minutes at room temperature. Then the plates are washed three times with DI H2O to remove extra staining dye. OD540 is then measured to quantify the biofilm on the bottom of each well.
(§3) The strain for this experiment used was E. coli RP437/pRSH103, a strong film forming strain. The surface studied was that of a 96 well plate. Culture conditions were 24 hours or 48 hours of incubation in Luria-Bertani Broth (LB) supplemented with 10 μg/mL tetracycline at 37° C. The following assays were performed:
(§4) 1. Measurement of total cell growth in each well using OD600. 2. Quantification of the biofilm at the bottom of each well by staining with 0.1% crystal violet and reading OD540.
2. Quantification of total biofilm by dissolving the crystal violet with ethanol and reading at OD540 Absorbance at 540 nm and 600 nm with the medium and triazine only (no cells) was also measured to control the results by subtracting the background reading.

[4] = test system: E. coli RP437/pRSH103 planktonic cells; assay: Total planktonic cell growth (OD600); type: cell-based; settings: concentration range 0-5 μg/mL
Procedure: as §3, §4

[5] = Staphylococcus aureus, Table 2, read-out: S. Aureus MIC50
[6] = Staphylococcus aureus, Table 2, read-out: S. Aureus MIC90
[7] = Escherichia coli, D31, Table 2, read-out: E. Coli MIC50
[8] = Escherichia coli, D31, Table 2, read-out: E. Coli MIC90
[9] = Escherichia coli, D31, Table 3, read-out: E. coli IC50

Compound	HD50 (fresh sheep erythrocytes; Table 3) [µg/mL]	MIC50 (B. subtilis; Table 2) [µg/mL]	MIC90 (B. subtilis; Table 2) [µg/mL]	IC50 (B. subtilis) [µg/mL]	MIC50 (S. aureus; [5]) [µg/mL]	MIC90 (S. aureus; [6]) [µg/mL]	IC50 (S. aureus; Staphylococcus aureus) [µg/mL]	MIC50 (E. coli D31; [7]) [µg/mL]	MIC90 (E. coli D31; [8]) [µg/mL]	HD50 (fresh sheep erythrocytes; 50% hemolysis, Table 1) [µg/mL]	MIC50 (S. aureus; S. aureus, Table 1) [µg/mL]	MIC90 (S. aureus; S. aureus, Table 1) [µg/mL]	MIC50 (A. baumannii [1]) [µg/mL]	MIC90 (A. baumannii [1]) [µg/mL]	MIC50 (E. coli D31; E. coli D31, Table 1) [µg/mL]	MIC90 (E. coli D31; E. coli D31, Table 1) [µg/mL]	Acquired resistance (change in IC50, ratio of new to original) (A. baumannii [2])	other results
N=C(N)NCCNc1nc(NCCc2c[nH]c3ccccc23)nc(NCCc2c[nH]c3ccccc23)n1 [TZ-WRW]	43.6	2.9 (≈ 5.83 µM)	5.1 (≈ 10.2 µM)	2.9 (≈ 5.83 µM)	3.3 (≈ 6.63 µM)	3.5 (≈ 7.03 µM)	3.3 (≈ 6.63 µM)	4.1 (≈ 8.24 µM)	9.1 (≈ 18.3 µM)									IC50 (E. coli D31; [9]): 4.1 µg/mL (≈ 8.24 µM)
CCCCN(CCCC)CCCNc1nc(NCc2ccccc2)nc(NCc2cccc3ccccc23)n1 [TN4]										221.3	68 (≈ 129 µM)	117.5 (≈ 223 µM)	302.5 (≈ 575 µM)	462.5 (≈ 880 µM)	18.8 (≈ 35.8 µM)	62.5 (≈ 119 µM)		
gentamycin																	marked contrast; also recorded: significant increase in the IC50	
O=C(O)c1cn(C2CC2)c2cc(N3CCNCC3)c(F)cc2c1=O [ciprofloxacin]																	significant increase in the IC50	
CCCCN(CCCC)CCCNc1nc(NCc2ccccc2)nc(Nc2cccc3ccccc23)n1 [TN2]										840.8	12.1 (≈ 23.6 µM)	14.55 (≈ 28.4 µM)	12.8 (≈ 25 µM)	15.8 (≈ 30.9 µM)	26.9 (≈ 52.6 µM)	55.6 (≈ 109 µM)		
NCCCCNc1nc(NCc2ccccc2)nc(Nc2cccc3ccccc23)n1 [TN3]										901.9	50.1 (≈ 121 µM)	71.3 (≈ 172 µM)	50.8 (≈ 123 µM)	77.4 (≈ 187 µM)	40 (≈ 96.7 µM)	84.8 (≈ 205 µM)		
CCCCN(CCCC)CCCNc1nc(NCCc2c[nH]c3ccccc23)nc(NCCc2c[nH]c3ccccc23)n1 [TZ-WK(Bu)2W]	91.5	1 (≈ 1.72 µM)	3.1 (≈ 5.33 µM)	1 (≈ 1.72 µM)	1.8 (≈ 3.09 µM)	2.4 (≈ 4.13 µM)	1.8 (≈ 3.09 µM)	21.3 (≈ 36.6 µM)	55.2 (≈ 94.9 µM)									IC50 (E. coli D31; [9]): 21.3 µg/mL (≈ 36.6 µM)
CN[C@H](CC(C)C)C(=O)N[C@H]1C(=O)N[C@@H](CC(N)=O)C(=O)N[C@H]2C(=O)N[C@H]3C(=O)N[C@H](C(=O)N[C@H](C(=O)O)c4cc(O)cc(O)c4-c4cc3ccc4O)[C@H](O)c3ccc(c(Cl)c3)Oc3cc2cc(c3O[C@@H]2O[C@H](CO)[C@@H](O)[C@H](O)[C@H]2O[C@H]2C[C@](C)(N)[C@H](O)[C@H](C)O2)Oc2ccc(cc2Cl)[C@H]1O [Vancomycin, reference compound]																	marked contrast	MIC50 (B. subtilis): < 0.8 µg/mL; MIC90 (B. subtilis): < 0.8 µg/mL; MIC50 (S. aureus; Staphylococcus aureus, read-out: S. Aureus MIC50): 0.8 µg/mL (≈ 0.552 µM); MIC90 (S. aureus; Staphylococcus aureus, read-out: S. Aureus MIC90): 1.2 µg/mL (≈ 0.828 µM); MIC50 (E. coli D31; Escherichia coli, D31, read-out: E. Coli MIC50): 192 µg/mL (≈ 132 µM); MIC90 (E. coli D31; Escherichia coli, D31, read-out: E. Coli MIC90): > 200 µg/mL
NCCCNc1nc(NCCc2c[nH]c3ccccc23)nc(NCCc2c[nH]c3ccccc23)n1 [TZ-WKW]	65	1.5 (≈ 3.19 µM)	2.3 (≈ 4.9 µM)	1.5 (≈ 3.19 µM)	3.4 (≈ 7.24 µM)	4.4 (≈ 9.37 µM)	3.4 (≈ 7.24 µM)	4.5 (≈ 9.58 µM)	6 (≈ 12.8 µM)									IC50 (E. coli D31; Escherichia coli, D31, read-out: E. coli IC50): 4.5 µg/mL (≈ 9.58 µM)
NCCCCNc1nc(NCc2ccccc2)nc(NCc2cccc3ccccc23)n1 [TN5]										167.5	5.9 (≈ 13.8 µM)	9.8 (≈ 22.9 µM)	3 (≈ 7.02 µM)	5.1 (≈ 11.9 µM)	4.75 (≈ 11.1 µM)	8.9 (≈ 20.8 µM)	does not acquire resistance	Biofilm formation ([3]; E. coli): prevents film formation; Biofilm formation ([3]; E. coli, listed as TN-5): prevents formation of biofilms; Biofilm formation ([3]; at 1, 5, 10 μg/mL, 24 or 48 hours in LB): inhibited biofilm formation; Growth of planktonic cells [4]: does not inhibit growth of planktonic cells
